Like-named read-outs stand apart in the source and are kept apart here.
Columns and labels:
Human NPY2 receptor = target: T1, Human NPY2 receptor (Homo sapiens, UniProt P49146); assay: Human NPY2 Receptor Binding Assay
T1 sequence (P49146 1-381): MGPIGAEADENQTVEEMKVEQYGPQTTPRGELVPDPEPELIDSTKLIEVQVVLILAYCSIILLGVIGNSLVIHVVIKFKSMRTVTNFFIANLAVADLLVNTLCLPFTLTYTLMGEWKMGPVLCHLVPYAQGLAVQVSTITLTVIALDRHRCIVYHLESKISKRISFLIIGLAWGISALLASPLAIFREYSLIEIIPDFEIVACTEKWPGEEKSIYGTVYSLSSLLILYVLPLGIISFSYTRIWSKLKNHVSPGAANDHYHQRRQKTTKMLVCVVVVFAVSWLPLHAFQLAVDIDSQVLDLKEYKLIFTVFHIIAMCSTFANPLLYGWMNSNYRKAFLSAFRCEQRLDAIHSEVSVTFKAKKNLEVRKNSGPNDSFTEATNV

Human NPY5 Receptor = target: T2, Human NPY5 Receptor (Homo sapiens, UniProt Q15761); assay: Human NPY5 Receptor Binding Assay
T2 sequence (Q15761 1-445): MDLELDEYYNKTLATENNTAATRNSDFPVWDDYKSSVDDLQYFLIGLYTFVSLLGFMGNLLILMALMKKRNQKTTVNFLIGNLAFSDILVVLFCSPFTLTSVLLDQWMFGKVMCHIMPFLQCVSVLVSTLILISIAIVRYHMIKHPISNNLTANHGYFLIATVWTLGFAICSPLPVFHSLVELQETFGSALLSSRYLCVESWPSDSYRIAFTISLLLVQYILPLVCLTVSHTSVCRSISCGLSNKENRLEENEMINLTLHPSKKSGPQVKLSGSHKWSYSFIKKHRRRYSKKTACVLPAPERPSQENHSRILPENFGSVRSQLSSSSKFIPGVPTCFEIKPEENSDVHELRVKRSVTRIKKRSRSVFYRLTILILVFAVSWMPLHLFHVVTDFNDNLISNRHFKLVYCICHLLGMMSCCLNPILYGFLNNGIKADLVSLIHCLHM
Experimental: Human and Rat NPY5 Receptor Binding Assays
Binding assays are performed on GF/C Millipore 96-well plates pretreated with 0.02% polyethylenimine. The binding buffer is 25 mM Tris, 120 mM NaCl, 5 mM KCl, 1.2 mM KH2 PO4, 2.5 mM CaCl2, 1.2 mM MgSO4, 0.1% BSA and 0.5 mg/ml bacitracin, pH 7.4. Samples consist of membrane protein, 75-100 pM [125I]PYY (porcine, NEN-DuPont) and drug dilution. Nonspecific binding is defined by 1 μM PYY. After a 2 hour incubation at room temperature with constant mixing, the samples are aspirated on a vacuum manifold, and rinsed with ice-cold binding buffer. The amount of radioactivity in each well is quantitated with either gamma counting or liquid scintillation. IC50 values, which correspond to 50% inhibition of specific binding, are determined with non-linear regression analysis.

[1] = [125I]PYY, read-out: hPPY2 IC50
[2] = [125I]PYY, read-out: hNPY5 IC50

SMILES	IC50 (Human NPY2 receptor; [1]) [nM]	IC50 (Human NPY5 Receptor; [2]) [nM]	IC50 (Human NPY2 receptor) [nM]	IC50 (Human NPY5 Receptor; hNPY5 IC50, [125I]PYY) [nM]
O=C(CSc1nc2ccccc2c(=O)[nH]1)Nc1ccc(C2CCCCC2)cc1 [Compound 25, N-(4-Cyclohexyl-phenyl)-2-(4-oxo-3,-dihydro-quinazolin-2-ylsulfanyl)-acetamide]	> 5000	> 10000	–	–
O=C(CSc1ncnc2nc[nH]c12)Nc1ccc(C(=O)c2ccccc2)cc1 [Compound 28, N-(4-Benzoyl-phenyl)-2-(7H-purin-ylsulfanyl)-acetamide]	> 5000	> 10000	–	–
O=C(CSC1=NCCS1)Nc1ccc(C2CCCCC2)cc1 [Compound 31]	> 5000	640	–	–
O=C(CSCCO)Nc1ccc(C2CCCCC2)cc1 [Compound 33, N-(4cydohexyl-phenyl)-2-(2-hydroxy-ethylsulfanyl)-acetamide]	> 5000	69	–	–
O=C(CSc1ncnc2[nH]ncc12)Nc1ccc(C2CCCCC2)cc1 [Compound 35, N-(4-Cyclohexyl-phenyl)-2-(1H-pyrazolo[3,4-d]pyrimidin-4-ylsulfanyl)-acetamide]	> 5000	3600	–	–
O=C(CSc1nc2ccccc2s1)Nc1ccc(C2CCCCC2)cc1 [Compound 37, 2-(Benzothiazol-2-ylsulfanyl)-N-(4-cyclohexylphenyl)-acetamide]	> 5000	1700	–	–
O=C(CSc1ncccn1)Nc1ccc(C2CCCCC2)cc1 [Compound 39, N-(-Cyclohexyl-phenyl)-2-(pyrimidin-2-ylsulfanyl)-acetamide]	> 5000	490	–	–
O=C(CSc1ccncc1)Nc1ccc(C(=O)c2ccccc2)cc1 [Compound 41, N-(4-Benzoyl-phenyl)-2-(pyridin-4-ylsulfanyl)-acetamide]	–	–	> 5000	330
O=C(CSCC(O)CO)Nc1ccc(C(=O)c2ccccc2)cc1 (stereo not shown) [Compound 42, N-(4-Benzoyl-phenyl)-2-(2,3-dihydroxy-propylsulfanyl)-acetamide]	> 5000	1500	–	–
O=C(CSc1ncnc2[nH]ncc12)Nc1ccc(C(=O)c2ccccc2)cc1 [Compound 43, N-(4-Benzoyl-phenyl)-2-(1H-pyrazolo[3,4-d]pyrimidin-4-ylsulfanyl)-acetamide]	> 5000	1300	–	–
Cn1nnnc1SCC(=O)Nc1ccc(C(=O)c2ccccc2)cc1 [Compound 45, N-(4-Benzoyl-phenyl)-2-(1-methyl-1H-tetrazol-5-ylsulfanyl)-acetamide]	> 5000	170	–	–
O=C(CSc1ncccn1)Nc1ccc(C(=O)c2ccccc2)cc1 [Compound 49, N-(4-Benzoyl-phenyl)-2-(pyrimidin-2-ylsulfanyl)-cetarnide]	> 5000	1600	–	–
O=C(CSc1ccc(F)cc1)Nc1ccc(C2CCCCC2)cc1 [Compound 53]	> 5000	210	–	–
CC(=O)Nc1ccc(SCC(=O)Nc2ccc(C3CCCCC3)cc2)cc1 [Compound 54]	> 5000	2000	–	–
O=C(CSc1ccc(O)cc1)Nc1ccc(C2CCCCC2)cc1 [Compound 55]	> 5000	1700	–	–
Nc1nc(SCC(=O)Nc2ccc(C3CCCCC3)cc2)c2[nH]cnc2n1 [Compound 58, 2-(2-Amino-7H-purin-ylsulfanyl)-N-(4-cyclohexyl-phenyl)-acetamide]	> 5000	> 1000	–	–
CCOc1ccc2nc(SCC(=O)Nc3ccc(C(=O)c4ccccc4)cc3)sc2c1 [Compound 60]	> 5000	2100	–	–
O=C(CSc1ccc(F)cc1)Nc1ccc(C(=O)c2ccccc2)cc1 [Compound 63, N-(4-Benzoyl-phenyl)-2-(4-fluoro-phenylsulfanyl)-acetamide]	> 5000	650	–	–

Now from value to compound, other results behind:

IC50 (Human NPY2 receptor; [1]) [nM]	IC50 (Human NPY5 Receptor; [2]) [nM]	SMILES	IC50 (Human NPY2 receptor) [nM]	IC50 (Human NPY5 Receptor; hNPY5 IC50, [125I]PYY) [nM]
> 5000	480	Cc1ccnc(SCC(=O)Nc2ccc(C(=O)c3ccccc3)cc2)n1 [Compound 30, N-(4-Benzoyl-phenyl)-2-(4-methyl-pyrimidin-2-ylsulfanyl)-acetamide]	–	–
> 5000	1200	O=C(CSC1=NCCS1)Nc1ccc(C(=O)c2ccccc2)cc1 [Compound 32, N-(4-Benzoyl-phenyl)-2-(4,5-dihydro-thiazol-2-ylsulfanyl)-acetamide]	–	–
> 5000	144	O=C(CSCC(O)CO)Nc1ccc(C2CCCCC2)cc1 (stereo not shown) [Compound 34, N-(4-Cyclohexyl-phenyl)-2-(2,3-dihydroxy-propylsulfanyl)-acetamide]	–	–
> 5000	110	O=C(CSc1cccc[n+]1[O-])Nc1ccc(C2CCCCC2)cc1 [Compound 36, N-(4-Cyclohexyl-phenyl)-2-(1-oxy-pyridin-2-ylsulfanyl)-acetamide]	–	–
> 5000	> 10000	O=C(CSc1nc2ccccc2o1)Nc1ccc(C2CCCCC2)cc1 [Compound 38, 2-(Benzooxazol-2-ylsulfanyl)-N-(-Cyclohexyl-phenyl)-acetamide]	–	–
> 5000	690	O=C(CSCCO)Nc1ccc(C(=O)c2ccccc2)cc1 [Compound 40, N-(4-Benzoyl-phenyl)-2-(2-hydroxy-ethylsulfanyl)-acetamide]	–	–
> 5000	320	O=C(CSc1ccccn1)Nc1ccc(C(=O)c2ccccc2)cc1 [Compound 44, N-(4-Benzoyl-phenyl)-2-(pyridin-2-ylsulfanyl)-acetamide]	–	–
> 5000	300	O=C(CSc1cccc[n+]1[O-])Nc1ccc(C(=O)c2ccccc2)cc1 [Compound 46, N-(4-Benzoyl-phenyl)-2-(1-oxy-pyridin-2-ylsulfanyl)-acetamide]	–	–
> 5000	3800	O=C(CSc1nc2ccccc2s1)Nc1ccc(C(=O)c2ccccc2)cc1 [Compound 47, 2-(Benzothiazol-2-ylsulfanyl)-N-(4-benzoyl-phenyl)-acetamide]	–	–
> 5000	3000	O=C(CSc1nc2ccccc2o1)Nc1ccc(C(=O)c2ccccc2)cc1 [Compound 48, 2-(Benzooxazol-2-ylsulfanyl)-N-(4-benzoyl-phenyl)-acetamide]	–	–
> 5000	53	O=C(CSc1ccncc1)Nc1ccc(C2CCCCC2)cc1 [Compound 50, N-(-clohexyl-phenyl)-2-(pyridin-4-ylsulfanyl)-acetamide]	–	–
> 5000	730	O=C(CSc1nnnn1-c1ccccc1)Nc1ccc(C2CCCCC2)cc1 [Compound 52]	–	–
> 5000	730	O=C(CSc1nc[nH]n1)Nc1ccc(C2CCCCC2)cc1 [Compound 56, N-(4-Cyclohexyl-phenyl)-2-(1H-[1,2,4]triazol-3-ylsultanyl)-acetamide]	–	–
> 5000	> 1000	Nc1nc(SCC(=O)Nc2ccc(C3CCCCC3)cc2)n[nH]1 [Compound 57, 2-(-Amino-2H-[1,2,4]triazol-3-ylsulfanyl)-N-(4-cyclohexyl-phenyl)-acetamide]	–	–
> 5000	> 1000	Nc1nc(SCC(=O)Nc2ccc(C3CCCCC3)cc2)nc2[nH]ncc12 [Compound 59]	–	–
> 5000	510	Nc1nnc(SCC(=O)Nc2ccc(C(=O)c3ccccc3)cc2)s1 [Compound 61]	–	–
> 5000	300	O=C(CSc1nnnn1-c1ccccc1)Nc1ccc(C(=O)c2ccccc2)cc1 [Compound 62, N-(4-Benzoyl-phenyl)-2-(1-phenyl-1H-tetrazol-5-ylsulfanyl)-acetamide]	–	–

— patent US6245817A, “NPY5 receptor antagonists and methods for using same” (Bayer Corporation, priority 1999, dated 2001)
